Legend:
[1] = Displacement of [Phe13, [125I]Tyr19]-MCH from human MCHR1 E4Q/A5T double mutant expressed in HEK293 cell membranes after 90 mins by scintillation counting analysis
[2] = Lipophilicity, log P of the compound by HPLC analysis; format: physicochemical
[3] = test system: Rattus norvegicus; assay: Antiobesity activity in Sprague-Dawley rat assessed as body weight loss at 15 mg/kg, po qd administered 1 hr prior to onset of dark cycle measured for 7 days relative to vehicle-treated control; format: functional
[4] = Fraction unbound in Sprague-Dawley rat plasma at 15 mg/kg, po qd; format: ADME, organism-based
[5] = Plasma concentration in Sprague-Dawley rat at 15 mg/kg, po qd measured at 20 hrs post dose; format: ADME, organism-based
[6] = Drug uptake in Sprague-Dawley rat brain at 15 mg/kg, po qd measured at 20 hrs post dose; format: ADME, organism-based; details: read-out: Drug uptake
[7] = test system: Rattus norvegicus; assay: Antiobesity activity in Sprague-Dawley rat assessed as 2-(4-chlorophenyl)-5-(4-(2-hydroxy-2-methylpropoxy)-3-methoxyphenyl)-4,5-dihydropyrrolo[3,4-c]pyrazol-6(2H)-one-mediated body weight loss at 30 mg/kg, po qd administered 1 hr prior to onset of dark cycle measured for 4 days relative to vehicle-treated control; format: functional
[8] = test system: Plasma; assay: Fraction unbound in Sprague-Dawley rat plasma assessed as 2-(4-chlorophenyl)-5-(4-(2-hydroxy-2-methylpropoxy)-3-methoxyphenyl)-4,5-dihydropyrrolo[3,4-c]pyrazol-6(2H)-one at 30 mg/kg, po qd; format: ADME, organism-based; details: in vivo
[9] = test system: Plasma; assay: Plasma concentration in Sprague-Dawley rat assessed as 2-(4-chlorophenyl)-5-(4-(2-hydroxy-2-methylpropoxy)-3-methoxyphenyl)-4,5-dihydropyrrolo[3,4-c]pyrazol-6(2H)-one at 30 mg/kg, po qd measured at 20 hrs post dose; format: ADME, organism-based; details: in vivo
[10] = test system: Brain; assay: Drug uptake in Sprague-Dawley rat brain assessed as 2-(4-chlorophenyl)-5-(4-(2-hydroxy-2-methylpropoxy)-3-methoxyphenyl)-4,5-dihydropyrrolo[3,4-c]pyrazol-6(2H)-one at 30 mg/kg, po qd measured at 20 hrs post dose; format: ADME, organism-based; details: in vivo, read-out: Drug uptake
[11] = biological target: T1, Melanin-concentrating hormone receptor 1 (Rattus norvegicus, UniProt P97639); assay: Antagonist activity at rat MCHR1 assessed as 2-(4-chlorophenyl)-5-(4-(2-hydroxy-2-methylpropoxy)-3-methoxyphenyl)-4,5-dihydropyrrolo[3,4-c]pyrazol-6(2H)-one
[12] = biological target: Melanin-concentrating hormone receptor 1 (Homo sapiens, UniProt Q99705); assay: Antagonist activity at human MCHR1 expressed in HEK293 cells assessed as inhibition of MCH-stimulated Ca2+ influx preincubated for 120 mins followed by MCH challenge by FLIPR assay; format: functional, cell-based
[13] = biological target: T2, hERG (KCNH2) (Homo sapiens, UniProt Q12809); assay: Inhibition of human ERG expressed in CHO cells at 0.3 uM by automated whole-cell patch clamp electrophysiology system relative to control; format: cell-based; details: CHO cells expressing human ERG
[14] = biological target: T2, hERG (KCNH2); assay: Inhibition of human ERG expressed in CHO cells at 1 uM by automated whole-cell patch clamp electrophysiology system relative to control; format: cell-based; details: CHO cells expressing human ERG
[15] = biological target: T1, Melanin-concentrating hormone receptor 1; assay: Antagonist activity at rat MCHR1
[16] = test system: Rattus norvegicus; assay: Antiobesity activity in Sprague-Dawley rat assessed as body weight loss at 1 mg/kg, po qd administered 1 hr prior to onset of dark cycle measured for 7 days relative to vehicle-treated control; format: functional
[17] = test system: Rattus norvegicus; assay: Antiobesity activity in Sprague-Dawley rat assessed as body weight loss at 3 mg/kg, po qd administered 1 hr prior to onset of dark cycle measured for 7 days relative to vehicle-treated control; format: functional
[18] = test system: Rattus norvegicus; assay: Antiobesity activity in Sprague-Dawley rat assessed as body weight loss at 10 mg/kg, po qd administered 1 hr prior to onset of dark cycle measured for 7 days relative to vehicle-treated control; format: functional
[19] = Fraction unbound in Sprague-Dawley rat plasma at 1 mg/kg, po qd; format: ADME, organism-based
[20] = Fraction unbound in Sprague-Dawley rat plasma at 3 mg/kg, po qd; format: ADME, organism-based
[21] = Fraction unbound in Sprague-Dawley rat plasma at 10 mg/kg, po qd; format: ADME, organism-based
[22] = Plasma concentration in Sprague-Dawley rat at 1 mg/kg, po qd measured at 20 hrs post dose; format: ADME, organism-based
[23] = Plasma concentration in Sprague-Dawley rat at 3 mg/kg, po qd measured at 20 hrs post dose; format: ADME, organism-based
[24] = Plasma concentration in Sprague-Dawley rat at 10 mg/kg, po qd measured at 20 hrs post dose; format: ADME, organism-based
[25] = test system: Brain; assay: Drug uptake in Sprague-Dawley rat brain at 1 mg/kg, po qd measured at 20 hrs post dose; format: ADME, organism-based; details: in vivo, BLD = below limit of detection
[26] = Drug uptake in Sprague-Dawley rat brain at 3 mg/kg, po qd measured at 20 hrs post dose; format: ADME, organism-based; details: read-out: Drug uptake
[27] = Drug uptake in Sprague-Dawley rat brain at 10 mg/kg, po qd measured at 20 hrs post dose; format: ADME, organism-based; details: read-out: Drug uptake
[28] = Ratio of unbound concentration in Sprague-Dawley rat brain at 3 mg/kg, po qd to Ki for rat MCHR1; format: ADME, organism-based; details: in vivo
[29] = Ratio of unbound concentration in Sprague-Dawley rat brain at 10 mg/kg, po qd to Ki for rat MCHR1; format: ADME, organism-based; details: in vivo
[30] = biological target: Voltage-gated inwardly rectifying potassium channel KCNH2 (Homo sapiens, UniProt Q12809); assay: Inhibition of human ERG expressed in CHO cells by automated whole-cell patch clamp electrophysiology system; format: cell-based
[31] = biological target: T1, Melanin-concentrating hormone receptor 1; assay: Antagonist activity at rat MCHR1 assessed as 6-(4-chlorophenyl)-3-(4-(2-hydroxy-2-methylpropoxy)-3-methoxyphenyl)thieno[3,2-d]pyrimidin-4(3H)-one
[32] = test system: Rattus norvegicus; assay: Antiobesity activity in Sprague-Dawley rat assessed as 6-(4-chlorophenyl)-3-(4-(2-hydroxy-2-methylpropoxy)-3-methoxyphenyl)thieno[3,2-d]pyrimidin-4(3H)-one-mediated body weight loss at 10 mg/kg, po qd administered 1 hr prior to onset of dark cycle measured for 7 days relative to vehicle-treated control; format: functional
[33] = test system: Plasma; assay: Fraction unbound in Sprague-Dawley rat plasma assessed as 6-(4-chlorophenyl)-3-(4-(2-hydroxy-2-methylpropoxy)-3-methoxyphenyl)thieno[3,2-d]pyrimidin-4(3H)-one at 10 mg/kg, po qd; format: ADME, organism-based; details: in vivo
[34] = test system: Plasma; assay: Plasma concentration in Sprague-Dawley rat assessed as 6-(4-chlorophenyl)-3-(4-(2-hydroxy-2-methylpropoxy)-3-methoxyphenyl)thieno[3,2-d]pyrimidin-4(3H)-one at 10 mg/kg, po qd measured at 20 hrs post dose; format: ADME, organism-based; details: in vivo
[35] = test system: Brain; assay: Drug uptake in Sprague-Dawley rat brain assessed as 6-(4-chlorophenyl)-3-(4-(2-hydroxy-2-methylpropoxy)-3-methoxyphenyl)thieno[3,2-d]pyrimidin-4(3H)-one at 10 mg/kg, po qd measured at 20 hrs post dose; format: ADME, organism-based; details: in vivo
[36] = Ratio of unbound concentration in Sprague-Dawley rat brain assessed as 6-(4-chlorophenyl)-3-(4-(2-hydroxy-2-methylpropoxy)-3-methoxyphenyl)thieno[3,2-d]pyrimidin-4(3H)-one at 10 mg/kg, po qd to Ki for rat MCHR1 assessed as 6-(4-chlorophenyl)-3-(4-(2-hydroxy-2-methylpropoxy)-3-methoxyphenyl)thieno[3,2-d]pyrimidin-4(3H)-one; format: ADME, organism-based; details: in vivo
[37] = Ratio of drug level in brain to plasma in Sprague-Dawley rat assessed as 6-(4-chlorophenyl)-3-(4-(2-hydroxy-2-methylpropoxy)-3-methoxyphenyl)thieno[3,2-d]pyrimidin-4(3H)-one at 10 mg/kg, po qd measured at 20 hrs post dose

T2 sequence (Q12809 whole entry): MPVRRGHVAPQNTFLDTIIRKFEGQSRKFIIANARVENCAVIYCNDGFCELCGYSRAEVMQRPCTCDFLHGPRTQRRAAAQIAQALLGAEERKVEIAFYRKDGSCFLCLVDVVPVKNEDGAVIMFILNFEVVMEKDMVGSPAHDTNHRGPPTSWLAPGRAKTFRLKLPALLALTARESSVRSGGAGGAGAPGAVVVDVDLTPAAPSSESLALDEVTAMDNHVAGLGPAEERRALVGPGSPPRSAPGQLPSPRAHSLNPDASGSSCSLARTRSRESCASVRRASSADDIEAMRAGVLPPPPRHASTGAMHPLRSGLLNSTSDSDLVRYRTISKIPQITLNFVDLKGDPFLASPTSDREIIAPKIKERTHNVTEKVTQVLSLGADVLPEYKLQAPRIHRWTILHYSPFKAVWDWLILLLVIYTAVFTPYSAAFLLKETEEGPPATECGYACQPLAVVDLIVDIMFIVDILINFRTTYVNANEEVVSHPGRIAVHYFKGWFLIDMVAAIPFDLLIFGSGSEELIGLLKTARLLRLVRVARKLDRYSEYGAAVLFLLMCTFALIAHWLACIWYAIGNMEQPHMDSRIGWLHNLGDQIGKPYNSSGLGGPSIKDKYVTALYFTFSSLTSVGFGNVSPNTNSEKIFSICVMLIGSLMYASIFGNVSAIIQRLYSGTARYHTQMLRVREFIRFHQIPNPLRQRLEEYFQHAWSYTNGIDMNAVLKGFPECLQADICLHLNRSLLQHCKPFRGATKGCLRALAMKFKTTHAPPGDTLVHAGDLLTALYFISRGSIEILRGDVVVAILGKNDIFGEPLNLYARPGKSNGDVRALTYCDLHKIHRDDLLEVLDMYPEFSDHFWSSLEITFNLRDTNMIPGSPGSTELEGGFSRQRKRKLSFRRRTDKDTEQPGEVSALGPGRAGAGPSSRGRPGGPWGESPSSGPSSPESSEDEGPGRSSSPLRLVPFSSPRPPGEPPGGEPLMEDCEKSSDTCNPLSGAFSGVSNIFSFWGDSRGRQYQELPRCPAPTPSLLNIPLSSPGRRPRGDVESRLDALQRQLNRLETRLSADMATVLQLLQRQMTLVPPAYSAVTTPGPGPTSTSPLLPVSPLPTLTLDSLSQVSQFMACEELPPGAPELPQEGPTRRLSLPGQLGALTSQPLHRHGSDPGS
T1 sequence (P97639 whole entry): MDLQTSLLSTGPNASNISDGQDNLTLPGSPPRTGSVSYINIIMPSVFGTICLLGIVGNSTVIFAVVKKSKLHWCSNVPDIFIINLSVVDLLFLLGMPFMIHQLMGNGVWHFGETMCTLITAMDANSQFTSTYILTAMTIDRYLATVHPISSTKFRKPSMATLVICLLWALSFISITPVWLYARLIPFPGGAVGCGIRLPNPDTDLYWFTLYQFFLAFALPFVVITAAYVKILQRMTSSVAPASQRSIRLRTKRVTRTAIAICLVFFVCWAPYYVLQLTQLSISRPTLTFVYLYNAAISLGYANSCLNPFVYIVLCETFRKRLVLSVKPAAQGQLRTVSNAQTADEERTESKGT
Chain of Melanin-concentrating hormone receptor 1 (Homo sapiens, UniProt Q99705) (Q99705 whole entry): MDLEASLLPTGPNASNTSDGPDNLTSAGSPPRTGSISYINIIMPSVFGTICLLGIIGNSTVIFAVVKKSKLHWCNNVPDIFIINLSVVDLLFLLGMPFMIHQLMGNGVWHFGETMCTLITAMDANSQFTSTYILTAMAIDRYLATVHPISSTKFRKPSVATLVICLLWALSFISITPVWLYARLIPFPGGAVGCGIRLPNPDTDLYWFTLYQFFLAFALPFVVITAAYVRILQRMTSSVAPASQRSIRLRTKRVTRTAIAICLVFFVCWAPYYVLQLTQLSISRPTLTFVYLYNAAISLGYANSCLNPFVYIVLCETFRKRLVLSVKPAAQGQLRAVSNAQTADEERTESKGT
Chain of Voltage-gated inwardly rectifying potassium channel KCNH2 (Q12809 whole entry): as the sequence (Q12809 whole entry) above

COc1cc(-n2cnc3cc(-c4ccc(Cl)cc4)sc3c2=O)ccc1OCCN1CCCC1
Ki [1]: 1 nM
logP [2]: 3.5
Activity [3]: 8.7%
fraction unbound [4]: 0.012
concentration at 20 h [5]: 378 nM
concentration at 20 h [6]: 654 nM

COc1cc(N2Cc3cn(-c4ccc(Cl)cc4)nc3C2=O)ccc1OCC(C)(C)OC(=O)CN
Activity [7]: 1.8%
Fu [8]: 1%
concentration [9]: 2560 nM
concentration [10]: 1060 nM
Ki [11]: 3.8 nM

COc1cc(N2Cc3cn(-c4ccc(Cl)cc4)nc3C2=O)ccc1OCC(C)O (configuration not stated)
Ki [1]: 13 nM

COc1cc(N2Cc3cn(-c4ccc(Cl)cc4)nc3C2=O)ccc1OCC(C)(C)O
Ki [1]: 8 nM
IC50 [12]: 1170 nM

COc1cc(N2Cc3cn(-c4ccc(Cl)cc4)nc3C2=O)ccc1OC[C@H](O)C1CC1
Ki [1]: 9 nM

COc1cc(N2Cc3cn(-c4ccc(Cl)cn4)nc3C2=O)ccc1OCC(C)(C)O
Ki [1]: 44 nM

COc1cc(N2Cc3cn(-c4ccc(Cl)cc4)nc3C2=O)ccc1OCCN1CCCC1
Ki [1]: 0.42 nM
logP [2]: 2.8
inhibition at 0.3 µM [13]: 58%
IC50 [12]: 3060 nM

COc1cc(N2Cc3nn(-c4ccc(Cl)cc4)cc3C2=O)ccc1OCC(C)O (configuration not stated)
Ki [1]: 334 nM

COc1cc(N2Cc3nn(-c4ccc(Cl)cc4)cc3C2=O)ccc1OCC(C)(C)O
Ki [1]: 107 nM

COc1cc(N2Cc3nn(-c4ccc(Cl)cc4)cc3C2=O)ccc1OC[C@H](O)C1CC1
Ki [1]: 41 nM

COc1cc(N2Cc3nn(-c4ccc(Cl)cc4)nc3C2=O)ccc1OCC(C)(C)O
Ki [1]: 34 nM

COc1cc(N2Cc3nn(-c4ccc(Cl)cc4)nc3C2=O)ccc1OCCN1CCCC1
Ki [1]: 2.3 nM
logP [2]: 3.3
inhibition at 0.3 µM [13]: 68%

CN[C@H]1CCN(c2ccc(N3Cc4cn(-c5ccc(Cl)cc5)nc4C3=O)cn2)C1
Ki [1]: 0.96 nM
inhibition at 1 µM [14]: 66%
Ki [15]: 0.8 nM
Activity [16]: 2.2%
Activity [17]: 3.8%
Activity [18]: 7.5%
fraction unbound [19]: 0.042
fraction unbound [20]: 0.042
fraction unbound [21]: 0.042
concentration at 20 h [22]: 131 nM
concentration at 20 h [23]: 574 nM
concentration at 20 h [24]: 1580 nM
Drug uptake [25]: BLD
concentration at 20 h [26]: 739 nM
concentration at 20 h [27]: 2770 nM
Ratio [28]: 39
Ratio [29]: 145
IC50 [12]: 241 nM

CN[C@@H]1CCN(c2ccc(N3Cc4cn(-c5ccc(Cl)cc5)nc4C3=O)cn2)C1
Ki [1]: 1.3 nM
inhibition at 1 µM [14]: 50%

CN(C)[C@H]1CCN(c2ccc(N3Cc4cn(-c5ccc(Cl)cc5)nc4C3=O)cn2)C1
Ki [1]: 0.7 nM
inhibition at 1 µM [14]: 50%

N[C@H]1CCN(c2ccc(N3Cc4cn(-c5ccc(Cl)cc5)nc4C3=O)cn2)C1
Ki [1]: 2.1 nM
inhibition at 1 µM [14]: 58%

CNC1CCN(c2ccc(N3Cc4cn(-c5ccc(Cl)cc5)nc4C3=O)cc2)C1 (configuration not stated)
Ki [1]: 0.8 nM
inhibition at 0.3 µM [13]: 51%

CC(=O)N(C)C1CCN(c2ccc(N3Cc4cn(-c5ccc(Cl)cc5)nc4C3=O)cn2)C1 (configuration not stated)
Ki [1]: 6.5 nM
inhibition at 1 µM [14]: 23%

CC(C)(C)NC1CCN(c2ccc(N3Cc4cn(-c5ccc(Cl)cc5)nc4C3=O)cn2)C1 (configuration not stated)
Ki [1]: 2.7 nM
inhibition at 1 µM [14]: 71%

COc1cc(N2Cc3cn(-c4ccc(Cl)cc4)nc3C2=O)ccc1N1CC[C@@H](O)C1
Ki [1]: 7.1 nM
IC50 [30]: > 80000 nM

COc1cc(N2Cc3cn(-c4ccc(Cl)cc4)nc3C2=O)ccc1N1C[C@H](O)[C@@H](O)C1
Ki [1]: 11 nM
inhibition at 1 µM [14]: < 5%
IC50 [30]: > 30000 nM

COc1cc(-n2cnc3cc(-c4ccc(Cl)cc4)sc3c2=O)ccc1OCC(C)(C)O
Ki [1]: 7.9 nM
IC50 [12]: 13 nM

COc1cc(-n2cnc3cc(-c4ccc(Cl)cc4)sc3c2=O)ccc1OCC(C)(C)OC(=O)CN
Ki [31]: 7.2 nM
Activity [32]: 8.8%
Fu [33]: 0.7%
concentration [34]: 546 nM
Drug uptake [35]: 1610 nM
Ratio [36]: 1.6
BPR [37]: 1.7

COc1cc(N2Cc3nn(-c4ccc(Cl)cc4)nc3C2=O)ccc1OCC(O)C1CC1 (racemic)
Ki [1]: 112 nM

From ChEMBL document CHEMBL3588848, “Dihydropyrrolopyrazol-6-one MCHR1 antagonists for the treatment of obesity: Insights on in vivo efficacy from a novel FLIPR assay setup” (Bioorg Med Chem Lett, 2015)
